We go through 20 molecules from patent publication US20180057465A1, “Inhibitors of Necroptosis” (Catalyst Therapeutics Pty Ltd, priority 2015, published 2018).

Where two headings read alike, the source gives them in different places.

In assay [1] the test system is U937 human histiocytic leukemia cell line. Nature of the assay: Assay 2: inhibition of TSQ induced necroptosis, 96 well plate format. The following applies: read-out: Inhibition of TSQ-induced necroptosis (cell based assay) IC50 (U937, TSQ nM). As to the method:
(§1) Assay 2: Screening Compounds for Inhibition of TSQ Induced Necroptosis, 96 Well Plate Format.
(§2) Cell Line ID: U937 human histiocytic leukemia cell line.
(§3) Cell Concentration (cells/well): Final cell density is 5000 cells per well.
(§4) Cell growth medium: HT-RPMI+7.4% FBS. Cells are cultured in Corning 150 cm^2 tissue culture flasks with vented caps at 37° C./5% CO2.
(§5) Incubation time (hours): 48 hours following addition of compounds and death stimuli
(§6) Compound concentration: 100 nM
(§7) DMSO final concentration (% v/v): 0.3%.
(§8) Compounds that are in the Death Stimulation Cocktail and Their Final Concentrations:
(§9) hTNF-Fc (100 ng/ml)—produced by standard procedures as shown in Bossen et al., J Biol Chem, 2006, 281(20), 13964-13971.
(§10) Compound A (500 nM)—Smac mimetic, Tetralogic
(§11) Q-VD-OPh (10 μM)—MP Biomedicals
(§12) Data is loaded into Abase and normalised. 10 points titration curve are fitted with the 4 parameter logistic nonlinear regression model and the IC50 reported reflects the inflection point of the curve for curve fitting.

Assay [2] relates to U937. Nature of the assay: Off-target effect (cell based assay), reported with assay 2. The following applies: Homo sapiens. As to the method: as §1, §2, §3, §4, §5, §6, §7, §12
Assay [3] concerns U937 human histiocytic leukemia cell line. In words: Assay 1: inhibition of TSQ induced necroptosis, 96 well plate format. Format: cell-based. The procedure:
For in vitro analysis, the necroptosis inhibition may be determined by assays used to measure TSQ-induced necroptosis, as described in the biological tests defined herein.
(§13) Assay 1: Screening Compounds for Inhibition of TSQ Induced Necroptosis, 96 Well Plate Format.
(§14) Cell Line ID: […] human histiocytic leukemia cell line.
(§15) Cell Concentration (cells/well): 35,000 per well in 120 μL of media, counted and plated immediately prior to addition of inhibitor and death stimuli. Final well volume of 150 μL after addition of compounds and death stimuli
(§16) Cell growth medium: HTRPMI (WEHI Media kitchen, contains L-Glutamine and penicillin, streptomycin)—supplemented with 7.4% v/v FCS (Gibco, Precision Plus. Lot #1221437)
as §5
(§17) Compound Concentrations—Log Titrations:
(§18) DMSO final concentration (% v/v): 1.2% in 10 μM well to 0.2% in the control well.
as §8, §9, §10, §11
(§19) Cells treated with PI staining (1 μg/ml) and analysed by flow cytometry

For assay [4] the test system is unchanged. In words: Off-target effect (cell based assay), reported with assay 1. As to the method:
as §13, §14, §15, §16, §5, §17, §18, §19

[5] abbreviates: U-937, Table 2, assay 2, U937, 5000 cells per well, hTNF-Fc 100 ng/ml, Compound A 500 nM, Q-VD-OPh 10 μM, 48 hours.
[6] abbreviates: U-937, Table 2, assay 2, U937, read-out: Off-target effect (cell based assay) IC50 (U937).
Setting [7] is: U-937, read-out: Off-target effect (cell based assay) IC50 (U937, μM).
The mark [8] stands for this setting: U-937, Table 1, assay 1, hTNF-Fc 100 ng/ml, Compound A 500 nM, Q-VD-OPh 10 μM, 48 hours, PI staining, flow cytometry, read-out: Inhibition of TSQ-induced necroptosis (cell based assay) IC50.
Where [9] appears, read: U-937, Table 1, assay 1, read-out: Off-target effect (cell based assay) IC50.
Where [10] appears, read: U-937, comparison tables of the description, values as in Table 1 (assay 1), read-out: IC50 (nM) Necroptosis inhibition.
Where [11] appears, read: U-937, comparison tables of the description, values as in Table 1 (assay 1), read-out: IC50 (nM) Off-Target Effect.

The IC50 is the concentration that gives 50% inhibition. With `CNC(=O)c1cc(Nc2nccc(N(C)c3ccc(NC(=O)Nc4cccc(CC(F)(F)F)c4)cc3)n2)ccc1C` [Compound 38, N,2-dimethyl-5-((4-(methyl(4-(3-(3-(2,2,2-trifluoroethyl)phenyl)ureido)phenyl)amino)pyrimidin-2-yl)amino)benzamide], the half-maximal inhibitory concentration (IC50) amounted to 2.3 nM in assay [1] (setting [5]) and 0.231 µM in assay [2] (setting [6]).
As for `Cc1ccc(Nc2nccc(N(C)c3ccc(NC(=O)Nc4cc(F)cc(C(F)(F)F)c4)cc3)n2)cc1C(=O)OCCO` [Compound 36, 2-hydroxyethyl 5-((4-((4-(3-(3-fluoro-5-(trifluoromethyl)phenyl)ureido)phenyl)(methyl)amino)pyrimidin-2-yl)amino)-2-methylbenzoate], the IC50 in assay [1] (setting [5]) came out at 23 nM; in assay [2] (setting [6]), 2.42 µM.
For `CNC(=O)c1cc(Nc2nccc(N(C)c3ccc(NC(=O)Nc4cc(F)cc(C(F)(F)F)c4)cc3)n2)ccc1CN1CCN(C)CC1` [Compound 35, 5-((4-((4-(3-(3-fluoro-5-(trifluoromethyl)phenyl)ureido)phenyl)(methyl)amino)pyrimidin-2-yl)amino)-N-methyl-2-((4-methylpiperazin-1-yl)methyl)benzamide], in that order: 45 nM and 0.841 µM.
For `CNC(=O)c1cc(Nc2nccc(N(C)c3ccc(NC(=O)Nc4cccc(OC(F)(F)F)c4)cc3)n2)ccc1C` [Compound 39, N,2-dimethyl-5-((4-(methyl(4-(3-(3-(trifluoromethoxy)phenyl)ureido)phenyl)amino)pyrimidin-2-yl)amino)benzamide], in that order: 3.9 nM and 0.419 µM.
For `CNC(=O)c1cc(Nc2nccc(N(C)c3ccc(NC(=O)Nc4cc(C#N)cc(C(F)(F)F)c4)cc3)n2)ccc1C` [Compound 42], in that order: 49 nM and above 10 µM.
As for `CNC(=O)c1cc(Nc2ncc(C)c(N(C)c3ccc(NC(=O)Nc4ccc(OC(F)(F)F)cc4)cc3)n2)ccc1C` [Compound 6, N,2-dimethyl-5-((5-methyl-4-(methyl(4-(3-(4-(trifluoromethoxy)phenyl)ureido)phenyl)amino)pyrimidin-2-yl)amino)benzamide], the IC50 is 29 nM in assay [1] (U-937, 48 h) and above 1000 µM in assay [2] (setting [7]).
Turning to `CNC(=O)c1cc(Nc2nccc(N(C)c3ccc(NC(=O)Nc4cc(F)cc(C(F)(F)F)c4)cc3)n2)ccc1C` [Compound 16, 5-(4-((4-(3-(3-fluoro-5-(trifluoromethyl)phenyl)ureido)phenyl)(methyl)amino)-pyrimidin-2-ylamino)-N,2-dimethylbenzamide], the IC50 amounted to 10.8 nM in assay [3] (setting [8]) and 1230 nM in assay [4] (setting [9]).
The corresponding values for `Cc1ccc(Nc2nccc(N(C)c3ccc(NC(=O)Nc4ccc(OC(F)(F)F)cc4)cc3)n2)cc1CN1CCOCC1` [Compound 18, 1-(4-(methyl(2-((4-methyl-3-(morpholinomethyl)phenyl)amino)pyrimidin-4-yl)amino)phenyl)-3-(4-(trifluoromethoxy)phenyl)urea] are 514 nM and above 10000 nM.
For `Cc1ccc(Nc2nccc(N(C)c3ccc(NC(=O)Nc4ccc(OC(F)(F)F)cc4)cc3)n2)cc1C(N)=O` [Compound 4, 2-Methyl-5-((4-(methyl(4-(3-(4-(trifluoromethoxy)phenyl)ureido)phenyl)amino)pyrimidin-2-yl)amino) benzamide], in that order: 154 nM and 7410 nM.
Turning to `CNC(=O)c1cc(Nc2nccc(N(C)c3ccc(NC(=O)Nc4cc(C(F)(F)F)cc(C(F)(F)F)c4)cc3)n2)ccc1C` [Compound 37, 5-((4-((4-(3-(3,5-bis(trifluoromethyl)phenyl)ureido)phenyl)(methyl)amino)pyrimidin-2-yl)amino)-N,2-dimethylbenzamide], the figures for the IC50 in assay [1] (setting [5]) and in assay [2] (setting [6]) were 71 nM and 1.09 µM, respectively.
Take `CN(c1ccc(NC(=O)Nc2ccc(OC(F)(F)F)cc2)cc1)c1nc(Nc2cccc(S(N)(=O)=O)c2)ncc1Cl` [Compound 2, 3-((5-Chloro-4-(methyl(4-(3-(4-(trifluoromethoxy)phenyl)ureido)phenyl)amino)pyrimidin-2-yl)amino) benzenesulfonamide]: the IC50 in assay [3] (setting [8]) came out at 29.5 nM; in assay [3] (setting [10]), 29.5 nM; in assay [4] (setting [9]), 2110 nM; in assay [4] (setting [11]), 2110 nM.
Turning to `CN(c1ccc(NC(=O)Nc2ccc(OC(F)(F)F)cc2)cc1)c1ccnc(Nc2cccc(N3CC4(CCOCC4)CC3=O)c2)n1` [Compound 40, 1-(4-(methyl(2-((3-(3-oxo-8-oxa-2-azaspiro[4.5]decan-2-yl)phenyl)amino)pyrimidin-4-yl)amino)phenyl)-3-(4-(trifluoromethoxy)phenyl)urea], the IC50 in assay [1] (setting [5]) was 7.5 nM; in assay [2] (setting [6]), above 10 µM.
In the case of `CNC(=O)c1cc(Nc2ncc(F)c(N(C)c3ccc(NC(=O)Nc4cc(C(F)(F)F)ccc4F)cc3)n2)ccc1C` [Compound 15, 5-(5-fluoro-4-((4-(3-(2-fluoro-5-(trifluoromethyl)phenyl)ureido)phenyl)(methyl)amino)pyrimidin-2-ylamino)-N,2-dimethylbenzamide], the IC50 in assay [3] (setting [8]) is below 1 nM; in assay [4] (setting [9]), 103 nM.
Regarding `CN(c1ccc(NC(=O)Nc2cc(F)cc(C(F)(F)F)c2)cc1)c1ccnc(Nc2cccc(S(N)(=O)=O)c2)n1` [Compound 10, 3-((4-((4-(3-(3-fluoro-5-(trifluoromethyl)phenyl)ureido)phenyl)(methyl)amino)pyrimidin-2-yl)amino)benzenesulfonamide], the IC50 in assay [3] (setting [8]) is below 1 nM; in assay [3] (setting [10]), below 1 nM; in assay [4] (setting [9]), 506 nM; in assay [4] (setting [11]), 506 nM.
For `CN(c1ccc(NC(=O)Nc2ccc(OC(F)(F)F)cc2)cc1)c1nc(Nc2cccc(S(N)(=O)=O)c2)ncc1C(F)(F)F` [Compound 6a, 3-((4-(Methyl(4-(3-(4-(trifluoromethoxy)phenyl)ureido)phenyl)amino)-5-(trifluoromethyl)pyrimidin-2-yl)amino)benzenesulfonamide], the IC50 in assay [3] (setting [10]) is above 10000 nM; in assay [4] (setting [11]) it was 5070 nM.
As to `CN(c1ccc(NC(=O)Nc2ccc(OC(F)(F)F)cc2)cc1)c1ccnc(Nc2cccc(S(N)(=O)=O)c2)n1` [drawing 174, reference compound], the IC50 in assay [1] (U-937, 48 h) was found to be 75 nM; in assay [2] (setting [7]), 1.5 µM.
On to `CNC(=O)c1cc(Nc2nccc(N(C)c3ccc(NC(=O)Nc4cc(Cl)cc(C(F)(F)F)c4)cc3)n2)ccc1C` [Compound 29, 5-((4-((4-(3-(3-chloro-5-(trifluoromethyl)phenyl)ureido)phenyl)(methyl)amino)pyrimidin-2-yl)amino)-N,2-dimethylbenzamide], for which the results for the IC50 in assay [3] (setting [8]) and in assay [4] (setting [9]) were 20 nM and 2050 nM, respectively.
As to `Cc1ccc(Nc2nccc(N(C)c3ccc(NC(=O)Nc4cc(F)cc(C(F)(F)F)c4)cc3)n2)cc1N1CCNC1=O` [Compound 34, 1-(3-fluoro-5-(trifluoromethyl)phenyl)-3-(4-(methyl(2-((4-methyl-3-(2-oxoimidazolidin-1-yl)phenyl)amino)pyrimidin-4-yl)amino)phenyl)urea], the IC50 came out at 23 nM in assay [3] (setting [8]), 2420 nM in assay [4] (setting [9]), 29 nM in assay [1] (setting [5]) and 0.513 µM in assay [2] (setting [6]).
`CN(c1ccc(NC(=O)Nc2ccc(OC(F)(F)F)cc2)cc1)c1ccnc(Nc2cccc(N3CCCC3=O)c2)n1` [Compound 8, 1-(4-(Methyl(2-((3-(2-oxopyrrolidin-1-yl)phenyl)amino)pyrimidin-4-yl)amino)phenyl)-3-(4-(trifluoromethoxy)phenyl)urea]: the IC50 was 75.4 nM in assay [3] (setting [8]), 75.4 nM in assay [3] (setting [10]), above 10000 nM in assay [4] (setting [9]) and above 10000 nM in assay [4] (setting [11]).
With `Cc1ccc(Nc2nccc(N(C)c3ccc(NC(=O)Nc4ccc(OC(F)(F)F)cc4)cc3)n2)cc1N1CC2(CCOCC2)CC1=O` [Compound 41, 1-(4-(methyl(2-((4-methyl-3-(3-oxo-8-oxa-2-azaspiro[4.5]decan-2-yl)phenyl)amino)pyrimidin-4-yl)amino)phenyl)-3-(4-(trifluoromethoxy)phenyl)urea], the figures for the 50% inhibitory concentration (IC50) in assay [1] (setting [5]) and in assay [2] (setting [6]) were 14 nM and above 10 µM, respectively.
